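Results reflect a 48-hour exposure of cells in 96-well plates to compound at five concentrations. GI50 is the concentration that inhibits growth by half.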 Calls of active or inactive are those of the source. Rule as the data show it: active = GI50 up to about 1.1 µM and inactive = higher.
What was measured:
Experiment in all cases: NCI tumour cell line growth inhibition, 48 h
[1] = test system: KM-20L2
[2] = test system: M19-MEL
[3] = test system: SNB-78
[4] = test system: DMS-114
[5] = test system: RXF 631
[6] = test system: XF498
[7] = test system: HOP-18
[8] = test system: DMS-273
[9] = test system: DLD-1

Measured: GI50

COc1cc2nncc(SCc3ccc(Cl)c(Cl)c3)c2cc1OC
inactive: [1] 6.85 µM | [2] > 100 µM | [3] 40.7 µM | [4] > 100 µM | [5] 72.1 µM | [6] 21.5 µM | [7] > 100 µM | [8] > 100 µM

COC(=O)c1nc(N)nc(C(=O)OC)c1C(=O)c1ccccc1
inactive: [1] > 100 µM | [2] > 100 µM | [4] > 100 µM | [5] > 100 µM | [6] > 100 µM | [9] > 100 µM | [7] > 100 µM

COc1ccc(OC(C(=O)O)C(C)C)c2c1CCCC2=O (configuration not stated)
inactive: [1] > 100 µM | [2] > 100 µM | [3] > 100 µM | [4] > 100 µM | [5] > 100 µM | [6] > 100 µM | [9] > 100 µM | [7] > 100 µM | [8] > 100 µM

CC1=CC(C)(C)N=C2SC(c3ccc(N)cc3)=NN12
inactive: [1] 46.6 µM | [2] 63.1 µM | [3] > 100 µM | [4] 32.7 µM | [5] 50.7 µM | [6] 50.9 µM | [9] 40.1 µM | [7] 1.47 µM | [8] > 42.9 µM

Cc1noc(/N=C2\C=C(Nc3onc(C)c3C)C(=O)c3ccccc32)c1C
inactive: [1] > 100 µM | [2] 3.98 µM | [3] > 100 µM | [4] 15.3 µM | [5] > 100 µM | [6] > 100 µM | [9] 96.8 µM | [7] 85.9 µM | [8] > 100 µM
